From patent publication US20240174723A1, “STAPLED ANTIMICROBIAL PEPTIDES (STAMPS) AND USES THEREOF” (Lytica Therapeutics, Inc., priority 2021, published 2024) come the findings set out here.

Values after ≈ are worked out from the molar mass of the structure shown. Positions of bridges follow the written chain, without caps; N, C: chain ends. Non-standard residues stand in square brackets, D forms with d. Residues, ends and D or L forms follow the SMILES beside them. S5 = C=CCCC[C@](C)(N)C(=O)O; Dap = NC[C@H](N)C(=O)O

For one series, the system named is K. pneumoniae. The class given is cell-based, Klebsiella pneumoniae. The procedure, abridged: (§1)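 Read-out is visible growth: the MIC is the minimum peptide concentration showing none after 20-24 h at 37 °C. Peptides were serially diluted from water stocks and mixed with log-phase bacteria (final 5×10^5 CFU/ml) in Mueller-Hinton or cation-adjusted Mueller-Hinton broth.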

Series [1] can be described thus: in vitro. The following applies: human. The class given is cell-based. As for the experimental part: Cell culture: RPTEC were maintained in MEM media supplemented with growth factors. HEPG2 cell line was maintained in Eagle's Minimum Essential Medium (EMEM) supplemented with fetal bovine serum to a final concentration of 10%.
90 minute cytotoxicity assay: Cells were plated in a 96-well format, and after overnight incubation, media was replaced with fresh media. Serial dilutions of StAMPs from a 5 mg/mL water stock, or vehicle, were added to the cells in a final volume of 100 μl. After incubating at 37° C. for 90 min, 50 μl of cell culture media was transferred to a clear 96-well plate, incubated with 50 μl of lactate dehydrogenase (LDH) assay reagent for 10 min, and absorbance measured at 490 nm on a microplate reader.
Renal toxicity was measured after 90 minutes of incubation, while liver toxicity was measured after 48 hours of incubation with StAMPs. N/A=not tested. The following apply to all peptides (i.e., StAMPs) listed in Tables A-C: Crosslinks (X^1—X^2 and X^3—X^4): (alk); N-terminus: —NH2; C-terminus: amidated with —NH2; counterion: Cl^−. The following apply to all peptides (i.e., StAMPs) listed in Table D: Crosslinks (X^1—X^2 and X^3—X^4): (alk); N-terminus: —NH2; C-terminus: as shown in table; counterion: Cl^−.
StAMP Micelle Formulation: DSPE-MPEG(2000) was suspended in buffered saline at 50-100 mg/mL overnight. StAMP stock solutions at 5-20 mg/mL in buffered saline were prepared and equal volumes of micelle and StAMP stock solution were mixed at the desired StAMP:Lipid ratio. Suspensions were allowed to sit for 5-10 minutes at room temperature before being used in in vitro and in vivo assays.
In Table E, the StAMP is StAMP 4 (Table A) and “Lipid”=DSPE-MPEG(2000).

For a further series, the system named is E. coli. The class given is cell-based, Escherichia coli. The procedure, abridged:
as §1

A further series concerns S. aureus. The class given is cell-based, Staphylococcus aureus. The procedure, abridged:
as §1

For another series, the system named is P. aeruginosa. Format: cell-based, Pseudomonas aeruginosa. The procedure, abridged: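 Broth microdilution adapted from CLSI in MHB or cation-adjusted MHB; log-phase P. aeruginosa at 5×10^5 CFU/ml final with serially diluted stapled peptides. Incubated 20-24 h at 37 °C; MIC is the lowest concentration without visible growth.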
Series [2] in a line: in vitro. Format: cell-based. The following applies: human, Inhibitory Concentration at 50% Cytotoxicity (IC50) Human Liver Cells (HepG2). The procedure, abridged:
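HepG2 cells in EMEM with 10% FBS, allowed 4 h to attach, then exposed to serial dilutions of StAMPs (from a 5 mg/mL water stock) or vehicle. After 48 h at 37 °C, viability read by CellTiter-Glo luminescence.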

The test system of the next series is A. baumannii. Format: cell-based, Acinetobacter baumannii. The procedure, abridged:
as §1

Usually IC50 stands for the concentration needed to halve the response being measured. In the case of `CC(C)[C@@H]1NC(=O)[C@@](C)(NC(=O)[C@H](C)NC(=O)[C@H](CCCCN)NC(=O)CNC(=O)[C@H](Cc2ccccc2)NC(=O)[C@H](CCCCN)NC(=O)[C@H](CCCCN)NC(=O)[C@H](CN)NC(=O)[C@H](CCCCN)NC(=O)[C@H](CCCCN)NC(=O)[C@]2(C)CCCC=CCCC[C@](C)(NC(=O)CN)C(=O)NCC(=O)N[C@@H](CCCCN)C(=O)N[C@@H](Cc3ccccc3)C(=O)N2)CCCC=CCCC[C@@](C)(C(=O)N[C@@H](C)C(=O)N[C@@H](CCCCN)C(=O)N[C@@H](CCCCN)C(N)=O)NC(=O)[C@H](CCC(=O)O)NC(=O)CNC1=O` [compound 40] (H-G[S5]GKF[S5]KK[Dap]KKFGKA[S5]VGE[S5]AKK-NH2; staple 2-6, 16-20), the “Minimum Inhibitory Concentration (MIC) K. pneumoniae” value in the series with K. pneumoniae was 8 µg/mL. The compound also came in with an IC50 at 90 min in the series “in vitro [1]” of 200 µg/mL (≈ 79.3 µM). Moreover, the “Minimum Inhibitory Concentration (MIC) E. coli” value in the series on E. coli amounted to 2 µg/mL. The “Minimum Inhibitory Concentration (MIC) S. aureus” value with S. aureus is more than 64 µg/mL. Further, the “Minimum Inhibitory Concentration (MIC) P. aeruginosa” value in the series on P. aeruginosa is 4 µg/mL. Moreover, the midpoint of inhibition in “in vitro [2]”, the IC50 at 48 hours, lay at 203 µg/mL (≈ 80.5 µM). Besides, the “Minimum Inhibitory Concentration (MIC) A. baumannii” value in the series on A. baumannii turned out to be 2 µg/mL.
As for `CC(C)[C@@H]1NC(=O)[C@@](C)(NC(=O)[C@H](C)NC(=O)[C@H](CCCCN)NC(=O)CNC(=O)[C@H](Cc2c[nH]c3ccccc23)NC(=O)[C@H](CCCCN)NC(=O)[C@H](CCCCN)NC(=O)[C@H](CCCCN)NC(=O)[C@H](CO)NC(=O)[C@H](Cc2c[nH]cn2)NC(=O)[C@]2(C)CCCC=CCCC[C@](C)(NC(=O)CN)C(=O)NCC(=O)N[C@@H](CCCCN)C(=O)N[C@@H](Cc3ccccc3)C(=O)N2)CCCC=CCCC[C@@](C)(C(=O)N[C@@H](C)C(=O)N[C@@H](CCCCN)C(=O)N[C@@H](CCCCN)C(N)=O)NC(=O)[C@H](CCC(=O)O)NC(=O)CNC1=O` [compound 68] (H-G[S5]GKF[S5]HSKKKWGKA[S5]VGE[S5]AKK-NH2; staple 2-6, 16-20), in the series with K. pneumoniae, the “Minimum Inhibitory Concentration (MIC) K. pneumoniae” value amounted to 16 µg/mL. The same compound came in with a concentration for half-maximal inhibition (IC50) at 90 min in “in vitro [1]” of 117 µg/mL (≈ 45.5 µM). The “Minimum Inhibitory Concentration (MIC) E. coli” value with E. coli was found to be 4 µg/mL. For the same compound, the “Minimum Inhibitory Concentration (MIC) S. aureus” value with S. aureus is more than 64 µg/mL. In the series with P. aeruginosa, the “Minimum Inhibitory Concentration (MIC) P. aeruginosa” value stood at 8 µg/mL. In “in vitro [2]”, this compound gave an IC50 at 48 hours of 129 µg/mL (≈ 50.2 µM). For the same compound, in the series on A. baumannii, the “Minimum Inhibitory Concentration (MIC) A. baumannii” value was determined as 4 µg/mL.
In the case of `CC(C)[C@@H]1NC(=O)[C@@](C)(NC(=O)[C@H](C)NC(=O)[C@H](CCCCN)NC(=O)CNC(=O)[C@H](Cc2ccccc2)NC(=O)[C@H](CCCCN)NC(=O)[C@H](CCCCN)NC(=O)[C@H](CCCCN)NC(=O)[C@@H](NC(=O)[C@H](Cc2c[nH]cn2)NC(=O)[C@]2(C)CCCC=CCCC[C@](C)(NC(=O)CN)C(=O)NCC(=O)N[C@@H](CCCCN)C(=O)N[C@@H](Cc3ccccc3)C(=O)N2)[C@@H](C)O)CCCC=CCCC[C@@](C)(C(=O)N[C@@H](C)C(=O)N[C@@H](CCCCN)C(=O)N[C@@H](CCCCN)C(N)=O)NC(=O)[C@H](CCC(=O)O)NC(=O)CNC1=O` [compound 8] (H-G[S5]GKF[S5]HTKKKFGKA[S5]VGE[S5]AKK-NH2; staple 2-6, 16-20), the “Minimum Inhibitory Concentration (MIC) K. pneumoniae” value with K. pneumoniae was more than 64 µg/mL. In “in vitro [1]”, this compound displayed a half-maximal inhibitory concentration (IC50) at 90 min of more than 200 µg/mL. In addition, in the series on E. coli, the “Minimum Inhibitory Concentration (MIC) E. coli” value came out at 8 µg/mL. For the same compound, the “Minimum Inhibitory Concentration (MIC) S. aureus” value in the series on S. aureus is more than 64 µg/mL. Also, the “Minimum Inhibitory Concentration (MIC) P. aeruginosa” value in the series with P. aeruginosa was found to be 8 µg/mL. For the same compound, the half-maximal inhibitory concentration (IC50) at 48 hours in “in vitro [2]” was more than 200 µg/mL. In addition, the “Minimum Inhibitory Concentration (MIC) A. baumannii” value in the series with A. baumannii came out at 4 µg/mL.
